This is an account of results in patent US8883826B2, “Alkynyl derivatives as modulators of metabotropic glutamate receptors” (Addex Pharma SA, priority 2004, dated 2014).

In general, IC50 refers to the concentration that inhibits the measured activity by half. Low values mean higher potency, high ones lower potency.

T1 sequence (P31424 21-1203): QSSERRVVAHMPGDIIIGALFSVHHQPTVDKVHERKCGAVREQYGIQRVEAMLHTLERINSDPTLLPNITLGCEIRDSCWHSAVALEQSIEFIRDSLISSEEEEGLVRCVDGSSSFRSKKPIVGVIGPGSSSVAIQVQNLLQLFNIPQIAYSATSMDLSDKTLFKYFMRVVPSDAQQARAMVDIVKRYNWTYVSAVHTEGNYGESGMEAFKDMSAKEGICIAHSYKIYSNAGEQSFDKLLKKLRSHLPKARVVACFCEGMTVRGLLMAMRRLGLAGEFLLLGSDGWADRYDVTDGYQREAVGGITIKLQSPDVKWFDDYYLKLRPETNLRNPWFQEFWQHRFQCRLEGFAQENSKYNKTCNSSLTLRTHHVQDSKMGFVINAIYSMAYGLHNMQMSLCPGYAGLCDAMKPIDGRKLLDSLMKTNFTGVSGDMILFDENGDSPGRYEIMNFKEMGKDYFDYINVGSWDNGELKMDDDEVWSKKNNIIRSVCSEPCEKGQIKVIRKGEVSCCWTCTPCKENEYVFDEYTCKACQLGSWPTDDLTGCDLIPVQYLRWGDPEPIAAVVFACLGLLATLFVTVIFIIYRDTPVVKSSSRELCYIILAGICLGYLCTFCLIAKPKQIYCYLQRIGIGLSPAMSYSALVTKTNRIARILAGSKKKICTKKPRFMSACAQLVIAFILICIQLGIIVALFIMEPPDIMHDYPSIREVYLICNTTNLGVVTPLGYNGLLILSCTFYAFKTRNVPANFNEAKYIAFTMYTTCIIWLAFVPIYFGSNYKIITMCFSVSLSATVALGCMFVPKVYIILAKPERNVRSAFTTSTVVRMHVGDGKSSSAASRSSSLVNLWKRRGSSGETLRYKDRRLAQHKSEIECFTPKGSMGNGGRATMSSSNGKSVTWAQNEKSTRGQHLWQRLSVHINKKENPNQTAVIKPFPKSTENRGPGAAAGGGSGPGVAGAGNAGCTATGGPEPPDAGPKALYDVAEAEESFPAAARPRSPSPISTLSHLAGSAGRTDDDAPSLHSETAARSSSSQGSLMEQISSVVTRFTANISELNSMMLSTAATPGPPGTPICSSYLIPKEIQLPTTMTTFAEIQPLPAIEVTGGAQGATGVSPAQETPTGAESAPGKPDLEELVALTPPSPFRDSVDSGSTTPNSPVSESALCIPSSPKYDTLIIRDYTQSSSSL

This experiment addresses T1, mGluR5 (Rattus norvegicus, UniProt P31424).
T1 construct: tissue Charles River Laboratories; host or cells: rat brain cortex membranes (Sprague-Dawley)
Kind of experiment: mGluR5 binding assay ([3H]-MPEP radioligand competition). The conditions noted are these: competition with 3 nM [3H]-MPEP, rat brain cortical membranes, 1 h at 4 °C; mean of at least three independent experiments in duplicate. From the text:
Activity of compounds of the invention was examined following a radioligand binding technique using whole rat brain and tritiated 2-methyl-6-(phenylethynyl)-pyridine ([^3H]-MPEP) as a ligand following similar methods than those described in F. Gasparini et al. Bioorg. Med. Chem. Lett. 2002, 12, 407-409 and in J. F. Anderson et al. J. Pharmacol. Exp. Ther. 2002, 303, 3, 1044-1051.
Cortices were dissected out from brains of 200-300 g Sprague-Dawley rats (Charles River Laboratories, L'Arbresle, France). Tissues were homogenized in 10 volumes (vol/wt) of ice-cold 50 mM Hepes-NaOH (pH 7.4) using a Polytron disrupter (Kinematica AG, Luzern, Switzerland) and centrifuged for 30 min at 40,000 g. (4° C.). The supernatant was discarded and the pellet washed twice by resuspension in 10 volumes 50 mM HEPES-NaOH. Membranes were then collected by centrifugation and washed before final resuspension in 10 volumes of 20 mM HEPES-NaOH, pH 7.4. Protein concentration was determined by the Bradford method (Bio-Rad protein assay, Reinach, Switzerland) with bovine serum albumin as standard.
[^3H]-MPEP Binding Experiments:
Membranes were thawed and resuspended in binding buffer containing 20 mM HEPES-NaOH, 3 mM MgCl2, 3 mM CaCl2, 100 mM NaCl, pH 7.4. Competition studies were carried out by incubating for 1 h at 4° C.: 3 nM [^3H]-MPEP (39 Ci/mmol, Tocris, Cookson Ltd, Bristol, U.K.), 50 μg membrane and a concentration range of 0.003 nM-30 μM of compounds, for a total reaction volume of 300 μl. The non-specific binding was defined using 30 μM MPEP. Reaction was terminated by rapid filtration over glass-fiber filter plates (Unifilter 96-well GF/B filter plates, Perkin-Elmer, Schwerzenbach, Switzerland) using 4×400 μl ice cold buffer using cell harvester (Filtermate, Perkin-Elmer, Downers Grove, USA). Radioactivity was determined by liquid scintillation spectrometry using a 96-well plate reader (TopCount, Perkin-Elmer, Downers Grove, USA).
The inhibition curves were generated using the Prism GraphPad program (Graph Pad Software Inc, San Diego, USA). IC50 determinations were made from data obtained from 8 point-concentration response curves using a non linear regression analysis.
The table below represents the mean of IC50 obtained from at least three independent experiments of selected molecules performed in duplicate.
A general note: Loss of bound radioactivity is the signal in a displacement assay; it reports binding, not function.
In turn, “2-(4-(3-Methyl-4-phenyl-1H-pyrazol-1-yl)but-1-ynyl)pyridine and 2-(4-(5-methyl-4-phenyl-1H-pyrazol-1-yl)but-1-ynyl)pyridine [Example 174]” had a concentration for half-maximal inhibition (IC50) of less than 10 µM.
The compound `Cc1nc(C#CCCc2ccccc2)cs1` [Example 1, 2-Methyl-(4-(4-phenyl)but-1-ynyl)thiazole] returned a concentration for half-maximal inhibition (IC50) of less than 0.5 µM.
For the compound `CCc1ccccc1-c1noc(CCC#Cc2ccccn2)n1` [Example 2, 2-(4-(3-(2-Ethylphenyl)-1,2,4-oxadiazol-5-yl)but-1-ynyl)pyridine], the concentration for half-maximal inhibition (IC50) was less than 10 µM.
With `O=C1c2ccccc2C(=O)N1CCC#Cc1ccccn1` [Example 3, 2-(4-(Pyridin-2-yl)but-3-ynyl)isoindoline-1,3-dione] the figure was less than 10 µM; with `O=c1c2ccccc2cnn1CCC#Cc1ccccn1` [Example 4, 2-(4-(Pyridin-2-yl)but-3-ynyl)phthalazin-1(2H)-one], less than 10 µM.
With `C(#Cc1ccc2ccccc2n1)CCc1ccccc1` [Example 5, 2-(4-Phenylbut-1-ynyl)quinoline] the figure was less than 10 µM; with `C(#Cc1nc2ccccc2o1)CCc1ccccc1` [Example 7, 2-(4-Phenylbut-1-ynyl)benzo[d]oxazole], less than 0.5 µM; with `Fc1ccc(-c2noc(CCC#Cc3ccccn3)n2)cc1` [Example 9, 2-(4-(3-(4-Fluorophenyl)-1,2,4-oxadiazol-5-yl)but-1-ynyl)pyridine], less than 10 µM.
For `C(#Cc1ccccn1)CCc1nc(-c2ccccc2)no1` [Example 10], the concentration for half-maximal inhibition (IC50) is less than 10 µM.
Compound `CN(C(=O)CCC#Cc1ccccn1)c1ccc(F)cc1` [Example 13, N-(4-Fluorophenyl)-N-methyl-5-(pyridin-2-yl)pent-4-ynamide] returned a 50% inhibitory concentration (IC50) of less than 0.5 µM.
On to `C(#Cc1ccccn1)CCc1csc(-c2ccccc2)n1` [Example 14, 2-(4-(2-Phenylthiazol-4-yl)but-1-ynyl)pyridine], for which the half-maximal inhibitory concentration (IC50) is less than 10 µM.
`Cc1ccccc1-c1noc(CCC#Cc2ccccn2)n1` [Example 15] came in with a half-inhibitory concentration (IC50) of less than 0.5 µM.
As for `C(#Cc1ccccn1)CCc1nc(Cc2ccccc2)no1` [Example 16, 2-(4-(3-Benzyl-1,2,4-oxadiazol-5-yl)but-1-ynyl)pyridine], the IC50 is less than 10 µM.
`Fc1ccccc1Cc1noc(CCC#Cc2ccccn2)n1` [Example 17, 2-(4-(3-(2-Fluorobenzyl)-1,2,4-oxadiazol-5-yl)but-1-ynyl)pyridine]: the IC50 was less than 10 µM.
With `Cc1ccccc1Cc1noc(CCC#Cc2ccccn2)n1` [Example 18, 2-(4-(3-(2-Methylbenzyl)-1,2,4-oxadiazol-5-yl)but-1-ynyl)pyridine] the figure was less than 10 µM; with `Fc1ccc(Cc2noc(CCC#Cc3ccccn3)n2)cc1` [Example 19, 2-(4-(3-(4-Fluorobenzyl)-1,2,4-oxadiazol-5-yl)but-1-ynyl)pyridine], less than 10 µM; with `COc1ccc(Cc2noc(CCC#Cc3ccccn3)n2)cc1` [Example 20, 2-(4-(3-(4-Methoxybenzyl)-1,2,4-oxadiazol-5-yl)but-1-ynyl)pyridine], less than 10 µM.
As to `CC(C)c1noc(CCC#Cc2ccccn2)n1` [Example 21, 2-(4-(3-Isopropyl-1,2,4-oxadiazol-5-yl)but-1-ynyl)pyridine], the half-inhibitory concentration (IC50) is less than 10 µM.
With `CCCCc1noc(CCC#Cc2ccccn2)n1` [Example 22, 2-(4-(3-Butyl-1,2,4-oxadiazol-5-yl)but-1-ynyl)pyridine] the figure was less than 10 µM; with `Fc1cccc(Cc2noc(CCC#Cc3ccccn3)n2)c1` [Example 23, 2-(4-(3-(3-Fluorobenzyl)-1,2,4-oxadiazol-5-yl)but-1-ynyl)pyridine], less than 10 µM.
On to `COc1cccc(Cc2noc(CCC#Cc3ccccn3)n2)c1` [Example 24, 2-(4-(3-(3-Methoxybenzyl)-1,2,4-oxadiazol-5-yl)but-1-ynyl)pyridine], for which the concentration for half-maximal inhibition (IC50) was less than 10 µM.
Regarding `Fc1ccccc1-c1noc(CCC#Cc2ccccn2)n1` [Example 25, 2-(4-(3-(2-Fluorophenyl)-1,2,4-oxadiazol-5-yl)but-1-ynyl)pyridine], the IC50 was less than 0.5 µM.
Compound `Fc1cccc(-c2noc(CCC#Cc3ccccn3)n2)c1` [Example 26, 2-(4-(3-(3-Fluorophenyl)-1,2,4-oxadiazol-5-yl)but-1-ynyl)pyridine] had an IC50 of less than 10 µM.
For the compound `Cc1ccc2oc(CCC#Cc3ccccn3)nc2c1` [Example 28, 5-Methyl-(2-(4-pyridin-2-yl)but-3-ynyl)benzo[d]oxazole], the 50% inhibitory concentration (IC50) is less than 10 µM.
On to `Cc1ccc2nc(CCC#Cc3ccccn3)oc2c1` [Example 29, 6-Methyl-(2-(4-pyridin-2-yl)but-3-ynyl)benzo[d]oxazole], for which the IC50 is less than 10 µM.
For the compound `Cc1cccc2oc(CCC#Cc3ccccn3)nc12` [Example 30, 4-Methyl-(2-(4-pyridin-2-yl)but-3-ynyl)benzo[d]oxazole], the IC50 is less than 10 µM.
With `Cc1nc(C#CCCc2nc3ccccc3o2)cs1` [Example 31, 2-(4-(2-Methylthiazol-4-yl)but-3-ynyl)benzo[d]oxazole] the figure was less than 0.05 µM.
For the compound `C(#Cc1ccccn1)CCc1cn2ccccc2n1` [Example 33, 2-(4-(Pyridin-2-yl)but-3-ynyl)-imidazo[1,2-a]pyridine], the IC50 was less than 0.05 µM.
Compound `COc1ccccc1-c1noc(CCC#Cc2ccccn2)n1` [Example 40, 2-(4-(3-(2-Methoxyphenyl)-1,2,4-oxadiazol-5-yl)but-1-ynyl)pyridine] came in with an IC50 of less than 10 µM.
For the compound `COc1cccc(-c2noc(CCC#Cc3ccccn3)n2)c1` [Example 41, 2-(4-(3-(3-Methoxyphenyl)-1,2,4-oxadiazol-5-yl)but-1-ynyl)pyridine], the concentration for half-maximal inhibition (IC50) is less than 10 µM.
`COc1ccc(-c2noc(CCC#Cc3ccccn3)n2)cc1` [Example 42, 2-(4-(3-(4-Methoxyphenyl)-1,2,4-oxadiazol-5-yl)but-1-ynyl)pyridine]: the concentration for half-maximal inhibition (IC50) is less than 10 µM.
The compound `Cc1cccc(-c2noc(CCC#Cc3ccccn3)n2)c1` [Example 43, 2-(4-(3-m-Tolyl-1,2,4-oxadiazol-5-yl)but-1-ynyl)pyridine] showed an IC50 of less than 10 µM.
For the compound `Cc1ccc(-c2noc(CCC#Cc3ccccn3)n2)cc1` [Example 44, 2-(4-(3-p-Tolyl-1,2,4-oxadiazol-5-yl)but-1-ynyl)pyridine], the IC50 is less than 10 µM.
Consider `Clc1ccccc1-c1noc(CCC#Cc2ccccn2)n1` [Example 45, 2-(4-(3-(2-Chlorophenyl)-1,2,4-oxadiazol-5-yl)but-1-ynyl)pyridine], for which the 50% inhibitory concentration (IC50) is less than 10 µM.
On to `Clc1cccc(-c2noc(CCC#Cc3ccccn3)n2)c1` [Example 46, 2-(4-(3-(3-Chlorophenyl)-1,2,4-oxadiazol-5-yl)but-1-ynyl)pyridine], for which the concentration for half-maximal inhibition (IC50) was less than 10 µM.
Regarding `Cc1cccc(C)c1-c1noc(CCC#Cc2ccccn2)n1` [Example 48, 2-(4-(3-(2,6-Dimethylphenyl)-1,2,4-oxadiazol-5-yl)but-1-ynyl)pyridine], the IC50 was less than 0.5 µM.
With `FC(F)(F)c1ccccc1-c1noc(CCC#Cc2ccccn2)n1` [Example 49], the IC50 is less than 10 µM.
In the case of `C(#Cc1ccccn1)CCc1nc(-c2cccc3ccccc23)no1` [Example 50, 2-(4-(3-(Naphthalen-1-yl)-1,2,4-oxadiazol-5-yl)but-1-ynyl)pyridine], the IC50 was less than 10 µM.
The compound `Cc1cccc(-c2noc(CCC#Cc3ccccn3)n2)c1C` [Example 52, 2-(4-(3-(2,3-Dimethylphenyl)-1,2,4-oxadiazol-5-yl)but-1-ynyl)pyridine] yielded a concentration for half-maximal inhibition (IC50) of less than 10 µM.
